Measurements taken from PubChem BioAssay AID290 (DTP/NCI, 2004).
Inconclusive results are not listed.

Tested on: mice, P1798 lymphosarcoma sc, survival or tumor weight T/C
Experiment: NCI In Vivo Anticancer Drug Screen. Data for tumor model P1798 Lymphosarcoma (subcutaneous) in unknown mice
Method: The antitumor activity of compounds was measured in mice bearing transplantable tumors. Survival or tumor size were measured and the results are expressed as the measurement made in the treated group (T) divided by the measurement made in the vehicle treated control group (C). The tumor model used in this assay is P1798 Lymphosarcoma (subcutaneous) in unknown mice

[1] = endpoint: mean tumor weight, dose: 8.0 mg/kg/injection, schedule: Q01DX010 (ip), vehicle: saline, higher = larger tumour
[2] = endpoint: mean tumor weight, dose: 5.0 mg/kg/injection, schedule: Q01DX010 (ip), vehicle: saline, higher = larger tumour

Compound: COc1cc2c(c(OC)c1OC)-c1ccc(OC)c(=O)cc1[C@@H](NC(C)=O)CC2
- T/C (endpoint: mean tumor weight, dose: 0.12 mg/kg/injection, schedule: Q01DX010 (ip), vehicle: saline, higher = larger tumour): 50 % of control
- T/C (endpoint: mean tumor weight, dose: 0.25 mg/kg/injection, schedule: Q01DX010 (ip), vehicle: saline, higher = larger tumour): 59 % of control
- T/C (endpoint: mean tumor weight, dose: 0.5 mg/kg/injection, schedule: Q01DX010 (ip), vehicle: saline, higher = larger tumour): 5 % of control

Compound: C[C@@H]1C[C@H]2CC[C@H](O2)[C@H](C)C(=O)O[C@@H](C)C[C@@H]2CC[C@@H](O2)[C@@H](C)C(=O)O[C@H](C)C[C@H]2CC[C@H](O2)[C@H](C)C(=O)O[C@@H](C)C[C@@H]2CC[C@@H](O2)[C@@H](C)C(=O)O1
- T/C (endpoint: mean tumor weight, dose: 45.0 mg/kg/injection, schedule: Q01DX011 (ip), vehicle: other, higher = larger tumour): 93 % of control
- T/C (endpoint: mean tumor weight, dose: 90.0 mg/kg/injection, schedule: Q01DX011 (ip), vehicle: other, higher = larger tumour): 89 % of control
- T/C (endpoint: mean tumor weight, dose: 180.0 mg/kg/injection, schedule: Q01DX011 (ip), vehicle: other, higher = larger tumour): 83 % of control
- T/C (endpoint: mean tumor weight, dose: 360.0 mg/kg/injection, schedule: Q01DX011 (ip), vehicle: other, higher = larger tumour): 61 % of control

Compound: O=C(Nc1ccc(C2=NCCN2)cc1)c1ccc(C(=O)Nc2ccc(C3=NCCN3)cc2)cc1
- T/C [1]: 67 % of control
- T/C (endpoint: mean tumor weight, dose: 16.0 mg/kg/injection, schedule: Q01DX010 (ip), vehicle: saline, higher = larger tumour): 65 % of control
- T/C (endpoint: mean tumor weight, dose: 32.0 mg/kg/injection, schedule: Q01DX010 (ip), vehicle: saline, higher = larger tumour): 109 % of control
- T/C (endpoint: mean tumor weight, dose: 64.0 mg/kg/injection, schedule: Q01DX010 (ip), vehicle: saline, higher = larger tumour): 49 % of control

Compound: Cc1cc(N(CCCl)CCCl)ccc1N=Nc1ccccc1C(=O)O
- T/C (endpoint: mean tumor weight, dose: 3.75 mg/kg/injection, schedule: Q01DX010 (ip), vehicle: carboxymethylcellulose (CMC), higher = larger tumour): 40 % of control
- T/C (endpoint: mean tumor weight, dose: 7.5 mg/kg/injection, schedule: Q01DX010 (ip), vehicle: carboxymethylcellulose (CMC), higher = larger tumour): 26 % of control

Compound: c1ccc(COCC[P+](c2ccccc2)(c2ccccc2)c2ccccc2)cc1
- T/C [2]: 53 % of control
- T/C [1]: 49 % of control

Compound: c1ccc(CNc2ncnc3[nH]ncc23)cc1
- T/C (endpoint: mean tumor weight, dose: 15.6 mg/kg/injection, schedule: Q01DX010 (ip), vehicle: carboxymethylcellulose (CMC), higher = larger tumour): 82 % of control

Compound: O=c1cn[nH]c(=O)[nH]1
- T/C (endpoint: mean tumor weight, dose: 375.0 mg/kg/injection, schedule: Q01DX010 (ip), vehicle: carboxymethylcellulose (CMC), higher = larger tumour): 90 % of control

Compound: N[C@@H](Cc1ccc(N(CCCl)CCCl)cc1)C(=O)O
- T/C (endpoint: mean tumor weight, dose: 1.25 mg/kg/injection, schedule: Q01DX010 (ip), vehicle: saline, higher = larger tumour): 49 % of control
- T/C (endpoint: mean tumor weight, dose: 2.5 mg/kg/injection, schedule: Q01DX010 (ip), vehicle: saline, higher = larger tumour): 29 % of control
- T/C (endpoint: mean tumor weight, dose: 4.0 mg/kg/injection, schedule: Q01DX011 (ip), vehicle: carboxymethylcellulose (CMC), higher = larger tumour): 13 % of control
- T/C [2]: 16 % of control
- T/C (endpoint: median survival time, dose: 0.75 mg/kg/injection, schedule: Q01DX010 (sc), vehicle: saline, higher = longer survival): 112 % of control
- T/C (endpoint: median survival time, dose: 1.5 mg/kg/injection, schedule: Q01DX010 (sc), vehicle: saline, higher = longer survival): 104 % of control
- T/C (endpoint: median survival time, dose: 3.0 mg/kg/injection, schedule: Q01DX010 (sc), vehicle: saline, higher = longer survival): 75 % of control
- T/C (endpoint: median survival time, dose: 6.0 mg/kg/injection, schedule: Q01DX010 (sc), vehicle: saline, higher = longer survival): 52 % of control
- T/C (endpoint: median survival time, dose: 12.0 mg/kg/injection, schedule: Q01DX010 (sc), vehicle: saline, higher = longer survival): 26 % of control

Compound: N#CCSc1ncnc2nc[nH]c12
- T/C (endpoint: mean tumor weight, dose: 25.0 mg/kg/injection, schedule: Q01DX010 (ip), vehicle: carboxymethylcellulose (CMC), higher = larger tumour): 49 % of control
- T/C (endpoint: mean tumor weight, dose: 50.0 mg/kg/injection, schedule: Q01DX010 (ip), vehicle: carboxymethylcellulose (CMC), higher = larger tumour): 46 % of control

Compound: O=C1CCC(N2C(=O)c3ccccc3C2=O)C(=O)N1 (stereo unspecified)
- T/C (endpoint: mean tumor weight, dose: 18.75 mg/kg/injection, schedule: Q01DX010 (ip), vehicle: carboxymethylcellulose (CMC), higher = larger tumour): 122 % of control
- T/C (endpoint: mean tumor weight, dose: 37.5 mg/kg/injection, schedule: Q01DX010 (ip), vehicle: carboxymethylcellulose (CMC), higher = larger tumour): 68 % of control
- T/C (endpoint: mean tumor weight, dose: 75.0 mg/kg/injection, schedule: Q01DX010 (ip), vehicle: carboxymethylcellulose (CMC), higher = larger tumour): 92 % of control
- T/C (endpoint: mean tumor weight, dose: 150.0 mg/kg/injection, schedule: Q01DX010 (ip), vehicle: carboxymethylcellulose (CMC), higher = larger tumour): 83 % of control

Compound: Clc1ncnc2nc[nH]c12
- T/C (endpoint: mean tumor weight, dose: 31.25 mg/kg/injection, schedule: Q01DX010 (ip), vehicle: carboxymethylcellulose (CMC), higher = larger tumour): 106 % of control
- T/C (endpoint: mean tumor weight, dose: 62.5 mg/kg/injection, schedule: Q01DX010 (ip), vehicle: carboxymethylcellulose (CMC), higher = larger tumour): 95 % of control
- T/C (endpoint: mean tumor weight, dose: 125.0 mg/kg/injection, schedule: Q01DX010 (ip), vehicle: carboxymethylcellulose (CMC), higher = larger tumour): 92 % of control
- T/C (endpoint: mean tumor weight, dose: 250.0 mg/kg/injection, schedule: Q01DX010 (ip), vehicle: carboxymethylcellulose (CMC), higher = larger tumour): 79 % of control
